From patent publication US20040106540A1, “Method of treating cancer” (priority 2003, published 2004)

Key:
Type in all cases: biochemical
[1] = target: T1, Akt3 (Homo sapiens, UniProt Q9Y243); test: Akt kinase assay, phosphorylation of GSK3-derived peptide; conditions: GSK3 peptide substrate
T1 construct: a middle T tag was added to the 5′ end of the full length Akt3 clone; middle T tag (EYMPME) (N); biotin tag (from pS2neo vector); made in house; host or cells: Drosophila S2 cells
Procedure: (§1) The ^33P-labeled biotinylated product can be captured and detected using Streptavidin coated Flashplates (NEN LifeSciences) or Streptavidin Membrane Filter Plates (Promega).
(§2) The reactions were then incubated at room temperature for 45 minutes.
(§3) 200 μl of stopped reaction was transferred to a Streptavidin Flashplate® PLUS (NEN Life Sciences, catalog no. SMP103). The plate was incubated for ≧10 minutes at room temperature on a plate shaker. The contents of each well was aspirated, and the wells rinsed 2 times with 200 μl TBS per well. The wells were then washed 3 times for 5 minutes with 200 μl TBS per well with the plates incubated at room temperature on a platform shaker during wash steps.
(§4) The plates were covered with sealing tape and counted using the Packard TopCount with the appropriate settings for counting [^33P] in Flashplates.
(§5) The enzymatic reactions as described in Step I of the Streptavidin Flash Plate Assay above were performed.
(§6) The reaction was stopped by adding 20 μl of 7.5M Guanidine Hydrochloride.
(§7) The plate was then washed using a vacuum manifold as follows: 1) 4×200 μl/well of 2M NaCl; 2) 6×200 μl/well of 2M NaCl with 1% H3PO4; 3)2×200 μl/well of diH20; and 4)2×100 μl/well of 95% Ethanol. The membranes were then allowed to air dry completely before adding scintillant.
The top of the plate was sealed with clear sealing tape, and the plate then counted using the Packard TopCount with the appropriate settings for [^33P] with liquid scintillant. […]

[2] = tested on: PKC (mix of isoforms); test: PKC assay (counter screen), myelin basic protein phosphorylation; conditions: read-out: Counter screens IC50 (μM) PKC
Procedure: Each PKC assay consists of the following components:
1) 5 μl 10×PKC co-activation buffer (2.5 mM EGTA, 4 mM CaCl2)
2) 10 μl 5×PKC activation buffer (1.6 mg/ml phosphatidylserine, 0.16 mg/ml diacylglycerol, 100 mM Tris pH 7.5, 50 mM MgCl, 5 mM 2-mercaptoethanol)
3) 5 μl ^33P-ATP (prepared by diluting 1.0 μl ^33P-ATP [10 mCi/nil] into 100 μl of a 100 μM stock of unlabeled ATP)
4) 10 μl of a 350 μg/ml stock of myelin basic protein (MBP, UBI) diluted in water
5) 10 μl appropriate solvent control or inhibitor dilution
Final assay concentrations were as follows: 0.25 mM EGTA, 0.4 mM CaCl, 20 mM Tris pH 7.5, 10 mM MgCl, 1 mM 2-mercaptoethanol, 0.32 mg/ml phosphatidylserine, 0.032 mg/mil diacylglycerol, 10 μM 33P-ATP, 70 μg/ml MBP, 10 ng/ml PKC, 0.1 mg/ml BSA.
Assays are performed using 96 deep well assay plates. In each assay well 10 μl of solvent control or appropriate inhibitor dilution with 5 μl ^33P-ATP (components #5 and #3) were premixed. […] The liquid in the assay wells was thoroughly mixed and the assay reactions incubated for 20 minutes at room temperature. The reactions were stopped by adding 100 mM EDTA (50 μl) and 100 mM sodium pyrophosphate (50 μl) and mixing. Phosphorylated MBP was collected on PVDF membranes in 96 well filter plates and quantitated by scintillation counting.

[3] = target: T2, PKA catalytic subunit (Bos taurus, UniProt P00517); test: PKA assay (counter screen), Kemptide phosphorylation; conditions: read-out: Counter screens IC50 (μM) PKA
T2 construct: purchased UBI (Upstate Biotechnology) 14-114
Procedure: Each individual PKA assay consists of the following components:
1) 10 μl 5× PKA assay buffer (200 mM Tris pH7.5, 100 mM MgCl2, 5 mM 2-mercaptoethanol, 0.5 mM EDTA)
2) 10 μl of a 50 μM stock of Kemptide (Sigma) diluted into water
3) 10 μl ^33P-ATP (prepared by diluting 1.0 μl ^33P-ATP [10 mCi/ml] into 200 μl of a 50 μM stock of unlabeled ATP)
4) 10 μl appropriate solvent control dilution or inhibitor dilution
Assays were assembled in 96 deep-well assay plates. Components #3 and #4 were premixed and in a separate tube, a mixture containing equal volumes of components #1, #2, and #5 was prepared. The assay reaction was initiated by adding 30 μl of the components #1, #2, and #5 mixture to wells containing ^33P-ATP and inhibitor. The liquid in the assay wells was mixed and the assay reactions incubated for 20 minutes at room temperature. The reactions were stopped by adding 50 μl 100 mM EDTA and 100 mM sodium pyrophosphate and mixing.
The enzyme reaction product (phosphorylated Kemptide) was quantitated using p81 phosphocellulose 96 well filter plates (Millipore). Each well of a p81 filter plate was fill with 75 mM phosphoric acid. The wells were aspirated and 170 μl of 75 mM phosphoric acid was added to each well. […] The peptide was trapped on filter following the application of a vacuum. The filters were washed 5× by filling wells with 75 mM phosphoric acid followed by aspiration. After the final wash, the filters were allowed to air dry. 30 μl scintillation fluid was added to each well and the filters counted on a TopCount (Packard).

[4] = target: T3, active human Akt1 (Homo sapiens, UniProt P31749); test: Akt kinase assay, phosphorylation of GSK3-derived peptide; conditions: GSK3 peptide substrate; read-out: GSK3 Peptide Substrate IC50 (μM) Akt-1
T3 construct: purchased Upstate Biotechnology 14-276
Excerpt: as §1
(§8) GSK3α (S21) Peptide #3928, biotin-[…] PG (SEQ.ID.NO.: 15), FW=1517.8 (obtained from Macromolecular Resources) for Streptavidin Flashplate or Streptavidin Filter Plate detection.
(§9) GSK3α (S21) Peptide #G80613, […] (SEQ.ID.NO.: 16), FW=1547.8 (obtained from Research Genetics) for Phosphocellulose filter plate detection.
as §2, §3, §4, §5, §6, §7
(§10) The bottom of the plate was sealed with white backing tape, 30 μl/well of Microscint 20 (Packard Instruments, catalog no. 6013621) was added. The top of the plate was sealed with clear sealing tape, and the plate then counted using the Packard TopCount with the appropriate settings for [^33P] with liquid scintillant.
(§11) The enzymatic reactions were performed as described in Step 1 of the Streptavidin Flash Plate Assay (above) utilizing […] (SEQ.ID. NO.: 16) as the substrate in place of biotin-[…].
(§12) The reaction was stopped by adding 20 μl of 0.75% H3PO4.
(§13) The bottom of the plate was sealed with white backing tape, then 30 μl/well of Microscint 20 was added. The top of the plate was sealed with clear sealing tape, and the plate counted using the Packard TopCount with the appropriate settings for [^33P] and liquid scintillant.

[5] = target: T4, Akt2 (Homo sapiens, UniProt P31751); test: as above; conditions: GSK3 peptide substrate
T4 construct: a middle T tag was added to the 5′ end of the full length Akt2; middle T tag (EYMPME) (N); biotin tag (from pS2neo vector); made in house; host or cells: Drosophila S2 cells
Excerpt: as §1, §8, §9, §2, §3, §4, §5, §6, §7, §10, §11, §12, §13

[6] = target: T5, delta PH-Akt1 (Homo sapiens, UniProt P31749); test: Akt kinase assay, phosphorylation of GSK3-derived peptide (PH domain deleted mutant); conditions: GSK3 peptide substrate; Akt1 lacking PH domain; read-out: GSK3 Peptide Substrate IC50 (μM) Akt-1 delta PH
T5 construct: PCR deletion mutagenesis was done using the full length Akt1 gene in the pS2neo vector as template; middle T tag (EYMPME) (N); biotin tag (from pS2neo vector); made in house; host or cells: Drosophila S2 cells
Excerpt: For the expression of a pleckstrin homology domain (PH ) deleted (Δ aa 4-129, which includes deletion of a portion of the Akt1 hinge region) version of Akt1, PCR deletion mutagenesis was done using the full length Akt1 gene in the pS2neo vector as template. […] The final PCR product was digested with KpnI and SmaI and ligated into the pS2neo full length Akt1 KpnI/Sma I cut vector, effectively replacing the 5′ end of the clone with the deleted version.
as §1, §8, §9, §2, §3, §4, §5, §6, §7, §10, §11, §12, §13

T5 sequence (P31749 with tags, fused parts or gaps): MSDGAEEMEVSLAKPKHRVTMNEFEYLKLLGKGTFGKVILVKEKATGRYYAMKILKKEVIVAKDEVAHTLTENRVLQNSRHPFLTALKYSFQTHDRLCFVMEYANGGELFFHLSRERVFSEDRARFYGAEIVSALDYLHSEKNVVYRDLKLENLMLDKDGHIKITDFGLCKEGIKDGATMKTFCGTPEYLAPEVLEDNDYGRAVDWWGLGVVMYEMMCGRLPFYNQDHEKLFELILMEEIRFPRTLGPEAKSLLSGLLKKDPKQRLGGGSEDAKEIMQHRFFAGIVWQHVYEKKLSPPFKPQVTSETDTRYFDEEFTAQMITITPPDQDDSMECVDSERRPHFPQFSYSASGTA
T1 sequence (Q9Y243 whole entry): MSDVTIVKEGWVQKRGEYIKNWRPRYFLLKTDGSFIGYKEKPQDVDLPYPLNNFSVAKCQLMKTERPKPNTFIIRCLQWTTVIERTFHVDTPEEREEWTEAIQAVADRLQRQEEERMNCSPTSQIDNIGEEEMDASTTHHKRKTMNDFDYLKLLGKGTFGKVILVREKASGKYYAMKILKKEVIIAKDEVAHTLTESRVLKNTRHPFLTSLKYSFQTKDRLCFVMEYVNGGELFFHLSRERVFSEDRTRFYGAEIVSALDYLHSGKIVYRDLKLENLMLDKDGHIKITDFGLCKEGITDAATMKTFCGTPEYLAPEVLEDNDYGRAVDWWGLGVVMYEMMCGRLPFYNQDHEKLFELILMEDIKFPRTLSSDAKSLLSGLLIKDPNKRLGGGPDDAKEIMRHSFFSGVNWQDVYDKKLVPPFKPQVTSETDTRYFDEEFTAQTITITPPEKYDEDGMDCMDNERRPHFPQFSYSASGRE
T4 sequence (P31751 whole entry): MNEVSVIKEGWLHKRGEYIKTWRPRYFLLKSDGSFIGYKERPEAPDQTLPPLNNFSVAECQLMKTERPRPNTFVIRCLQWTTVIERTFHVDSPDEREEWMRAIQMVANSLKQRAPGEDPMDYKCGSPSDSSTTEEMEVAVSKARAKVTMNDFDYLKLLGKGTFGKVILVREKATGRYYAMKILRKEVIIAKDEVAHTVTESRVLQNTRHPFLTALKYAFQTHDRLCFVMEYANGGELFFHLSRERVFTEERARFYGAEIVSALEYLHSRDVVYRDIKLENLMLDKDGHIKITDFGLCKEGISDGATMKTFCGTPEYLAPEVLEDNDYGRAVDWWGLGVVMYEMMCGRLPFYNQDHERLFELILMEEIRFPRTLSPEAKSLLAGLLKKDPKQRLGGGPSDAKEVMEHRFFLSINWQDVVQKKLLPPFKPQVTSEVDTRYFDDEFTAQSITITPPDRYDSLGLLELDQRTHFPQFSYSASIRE
T3 sequence (P31749 whole entry): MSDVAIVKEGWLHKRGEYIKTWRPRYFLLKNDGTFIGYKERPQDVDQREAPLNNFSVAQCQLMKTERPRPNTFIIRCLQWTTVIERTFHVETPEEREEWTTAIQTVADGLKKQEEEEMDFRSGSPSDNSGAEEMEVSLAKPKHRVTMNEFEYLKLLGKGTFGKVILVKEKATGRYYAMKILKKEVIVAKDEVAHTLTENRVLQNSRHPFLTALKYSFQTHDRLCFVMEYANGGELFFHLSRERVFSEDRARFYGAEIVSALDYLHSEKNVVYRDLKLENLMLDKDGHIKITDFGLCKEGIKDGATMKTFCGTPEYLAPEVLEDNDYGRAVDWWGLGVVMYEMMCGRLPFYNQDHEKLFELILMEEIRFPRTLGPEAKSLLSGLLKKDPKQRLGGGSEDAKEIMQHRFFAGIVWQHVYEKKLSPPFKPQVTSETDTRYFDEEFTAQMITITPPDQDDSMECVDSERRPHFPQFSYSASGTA

IC50 [1] | IC50 [3] | IC50 [4] | IC50 [5] | IC50 [6] | Molecule | IC50 [2]
> 50 µM | > 40 µM | 2.03 µM | > 50 µM | > 50 µM | CN(C)CC(C)(C)CNc1nn2c(-c3ccc(F)cc3)nnc2cc1C1CCC1 [Compound 4, N′-(7-Cyclobutyl-3-(4-fluoro-phenyl)-[1,2,4]triazolo[4,3-b]pyridazin-6-yl)-2,2,N,N-tetramethyl-propane-1,3-diamine] | > 40 µM
> 50 µM | > 40 µM | 1.4 µM | > 50 µM | > 50 µM | CN(C)CC(C)(C)CNc1nn2c(-c3ccccc3)nnc2cc1C1CCC1 [Compound 1, N′-(7-Cyclobutyl-3-phenyl-[1,2,4]triazolo[4,3-b]pyridazin-6-yl)-2,2,N,N-tetramethyl-propane-1,3-diamine] | > 40 µM
> 50 µM | > 40 µM | 0.4 µM | > 50 µM | > 50 µM | CN(C)CC(C)(C)CNc1nn2c(-c3cccc(F)c3)nnc2cc1C1CCC1 [Compound 5, N′-(7-Cyclobutyl-3-(3-fluoro-phenyl)-[1,2,4]triazolo[4,3-b]pyridazin-6-yl)-2,2,N,N-tetramethyl-propane-1,3-diamine] | > 40 µM
> 50 µM | > 40 µM | 10.5 µM | > 50 µM | > 50 µM | CN(C)CC(C)(C)CNc1nn2c(-c3ccccc3)nnc2c2ccccc12 [Compound 6, 2,2,N,N-tetramethyl-N-(3-phenyl-[1,2,4]triazolo[3,4-a]phthalazin-6-yl)-propane-1,3-diamine] | > 40 µM
> 50 µM | > 40 µM | 0.42 µM | > 50 µM | > 50 µM | CN(C)CC(C)(C)CNc1nn2c(-c3cc(F)cc(F)c3)nnc2cc1C1CCC1 [Compound 2, N′-(7-Cyclobutyl-3-(3,5-difluoro-phenyl)-[1,2,4]triazolo[4,3-b]pyridazin-6-yl)-2,2,N,N-tetramethyl-propane-1,3-diamine] | > 40 µM

The next lines start with the molecule.

Molecule | IC50 [1] | IC50 [3] | IC50 [4] | IC50 [5] | IC50 [6] | IC50 [2]
OCCOc1nn2c(-c3ccccc3)nnc2cc1-c1ccccc1 [Compound 8, 6-(2-Hydroxyethyl)oxy-3 7-diphenyl-[1,2,4]triazolo[4,3-b]pyridazine] |  | > 40 µM | 15.9 µM |  |  | > 40 µM
COc1ccc(-c2nnc3c4ccccc4c(NCC(C)(C)CN(C)C)nn23)cc1 [Compound 7, N′-[3-(4-Methoxy-phenyl)-[1,2,4]triazolo[4,3-a]phthalazin-6-yl)-2,2,N,N-tetramethyl-propane-1,3-diamine] | > 50 µM | > 40 µM | 3.88 µM | > 50 µM | > 50 µM | > 40 µM
6-(2-Hydroxybutyl)oxy-3,7-diphenyl-[1,2,4]triazolo[4,3-b]pyridazine [Compound 9] | > 50 µM | > 40 µM | 4.65 µM | > 50 µM | > 50 µM | > 40 µM
CN(C)CC(C)(C)CNc1nn2c(-c3ccc(F)c(F)c3)nnc2cc1C1CCC1 [Compound 3, N′-(7-Cyclobutyl-3-(3,4-difluoro-phenyl)-[1,2,4]triazolo[4,3-b]pyridazin-6-yl)-2,2,N,N-tetramethyl-propane-1,3-diamine] | > 50 µM | > 40 µM | 0.91 µM | > 50 µM | > 50 µM | > 40 µM
Nc1ccc(-c2nc3ccccc3nc2-c2ccc(N)cc2)cc1 [Compound 11, 2,3-bis(4-aminophenyl)-quinoxaline] | > 100 µM | > 80 µM | 6.1 µM | 45 µM | > 50 µM | > 80 µM
